Data taken from US20160207893A1, “NOVEL CALCIUM MODULATORS” (Myotherix, Inc., priority 2014, published 2016).

Columns and labels:
[1] = tested on: iCell Cardiomyocytes (hIPS cardiomyocytes); experiment: Calcium transient dynamics in cardiomyocytes derived from human stem cells by Kinetic Image Cytometry; type: cell-based
Source text: CTD25: Approximates the time elapsed during the first 25% of the transient duration. The measurement assesses the time elapsed from the 75% point of upstroke to the 75% point on the downstroke relative to the peak. Full Width Half Maximum (FWHM): The time elapsed from the 50% point of the upstroke to the 50% point of the down stroke. CTD75: Approximates the time elapsed for 75% of the transient duration. The measurement assesses the time elapsed from the 25% point of upstroke to the 25% point on the down stroke relative to the peak. CTD90: Approximates the time elapsed for 90% of the transient duration. The measurement assesses the time elapsed from the 10% point of upstroke to the 10% point on the down stroke relative to the peak. Decay Time: The time elapsed from the peak to the 50% point of the down stroke T75-25: The time elapsed from the 75% point of the transient maximum to the 25% point of the transient maximum on the down stroke. Beat Rate is assessed by measuring the number of transients observed during the recording period and extrapolating out to the number of expected beats per minute.
Analysis of Test Compounds on Calcium Transient Dynamics in Cardiomyocytes Derived from Human Stem Cells by Kinetic Image Cytometry
Cryopreserved cells (Cellular Dynamics International) were plated onto 96 well tissue culture plates previously coated with Matrigel (250 μg/ml) at a density of 25,000 cells per well, and maintained for two days in plating medium at 37° C. and 7% CO2. After two days in culture, the plating media was replaced with maintenance media and the cells were kept at 37° C. and 7% CO2 with the maintenance media replaced every other day. The cardiomyocytes were maintained in culture for 10 days prior to their use in the assay.
Prior to treatment with the test compounds, the cardiomyocytes were loaded using Fluo-4NW, Hoechst 33342 (200 ng/ml), and 2.5 mM probenecid in the supplied Fluo-4NW assay buffer. Cells were loaded for 1 hour at 37° C.
Test compounds were diluted to their final concentration in Tyrode's solution and brought to 37° C. In addition to standard 2 mM CaCl2 Tyrode's solution, elevated calcium variations using 4 mM and 6 mM CaCl2 were examined in separate test sets.
The hIPS Cardiomyocytes were also prepared for testing with 1 Hz electrical stimulation in standard 2 mM CaCl2 Tyrodes, and test compounds were prepared as described above. […]
Vala Sciences' Kinetic Image Cytometer (KIC™) was used to capture movies of the intracellular calcium transients. The environmental control chamber of the KIC was set to 37° C. and the KIC was fitted with a 20× objective and captured one image of the nuclei (Hoechst), then recorded 10 seconds of spontaneous activity (Fluo-4NW) at 30 fps from each well.

[2] = Plasma stability (incubation in mouse plasma, LC/MS/MS); type: in vitro ADME; conditions: for Plasma Stability, Time 0 min / Plasma Stability, Time 30 min / Plasma Stability, Time 60 min / Plasma Stability, Time 240 min: 37° C., 20 μM, parent remaining vs 0-min control
Protocol: The assay was carried out in 96-well microtiter plates. Compounds were incubated at 37° C. in the presence of the plasma. Reaction mixtures (50 μL) contained a final concentration of 20 μM test compound. The extent of metabolism was calculated as the disappearance of the test compound, compared to the 0-min control reaction incubations. Eucatropine was included as a positive control to verify assay performance.
At each of the time points, 500 μL of quench solution (100% acetonitrile with 0.1% formic acid) with internal standard was transferred to each well. Plates were sealed, vortexed, and centrifuged at 4° C. for 15 minutes at 4000 rpm. The supernatant was transferred to fresh plates for LC/MS/MS analysis.
All samples were analyzed on LC/MS/MS using an AB Sciex API 4000 instrument, coupled to a Shimadzu LC-20AD LC Pump system. Analytical samples were separated using a Waters Atlantis T3 dC18 reverse phase HPLC column (10 mm×2.1 mm) at a flow rate of 0.5 mL/min. The mobile phase consisted of 0.1% formic acid in water (solvent A) and 0.1% formic acid in 100% acetonitrile (solvent B). Elution conditions are detailed in the table below.

[3] = tested on: human Duchenne muscular dystrophy (hDMD) myoblast cells; experiment: Calcium release, SR calcium leak and SOCE in Fluo-4/AM-loaded hDMD myoblasts (CPA protocol); type: cell-based; conditions: 30 uM; for Integrated CPA-Induced CaT (area under the curve) (% Reduction in Peak A): CPA in Ca2+-free solution; for % Reduction in Peak CaT after return to 2 mM Ca^2+ (% Reduction in Peak E): SOCE-induced calcium transit
Protocol: Parameters measured are A, the peak CPA-induced calcium transit (F/F0); B, the maximum rate of rise of CPA-induced calcium transit (+ΔF/s); C, the maximum rate of decline of CPA-induced calcium transit (−ΔF/s); D, the integrated CPA-induced calcium transit (F.s); and E, the SOCE-induced calcium transit (F/F0).
Cell Preparation: De-identified telomerized human Duchenne muscular dystrophy (hDMD) myoblast cells were grown under standard cell culture conditions in 35 mm glass bottom petri dishes (MatTek, Ashland, Mass.) specially designed for perfusion and imaging.
Uncoated coverslips were coated with gelatin and hDMD cells seeded at ˜40-60% confluency 24 hours prior to fluorescence experiments.
Step 1. Cell Loading with the Fluorescent Ca^2+ Indicator Fluo-4/AM (Cell Permeant Form): hDMD cells were loaded with 5 μM Fluo-4/AM (Thermo Fisher Scientific) for 45 min at room temperature in the same buffer used for experiments of which composition is described below. After the incubation, the cells are washed twice with the same buffer without the indicator. Fluorescence experiments were initiated after a 30 min incubation in indicator-free buffer to allow for de-esterification of the dye and conversion to its acid active form by endogenous esterases.
Step 2. Fluo-4 Fluorescence Detection: A 35 mm petri dish containing Fluo-4-loaded myoblasts was set on the stage of an inverted Nikon Diaphot 300 epifluorescence microscope equipped with a dual PMT ratiometric fluorimeter system (Model SFX-2, Solamere Technology Group, Salt Lake City, Utah) and optical switch (Model DX-1000, Salt Lake City, Utah), a B/W camera and monitor, a PC computer running on Windows 7 Pro operating system and A/D-D/A data acquisition hardware (Axon Instruments Inc., Digidata 1440 interface) and software (Axon Instruments Inc., Axoscope v. 9.2). During a typical experiment, ca. one third to one half of a cell (field of view narrowed by a manually-controlled diaphragm) is visualized on the B/W TV monitor with an oil immersion 40× Fluor objective (NA=1.3) and defines the area from which epifluorescence intensity will be measured by one of the two PMTs (non-ratiometric measurements). For all experiments, the cells are excited by visible light produced by a 100 W mercury arc lamp centered at 488 nm. Emitted fluorescence at 520 nm is transmitted to the lateral port of the microscope by means of dichroic mirrors and a specific barrier filter located in one of three microscope filter cubes. Before each day of experiments, background fluorescence is cancelled by measuring emitted fluorescence in an unloaded cell. For all cells loaded with Fluo-4/AM, relative fluorescence intensity at 520 nm (filtered at 5 Hz) is normalized to Fluo-4 fluorescence intensity measured in Ca^2+-free medium (F/F0) prior to the addition of 10 μM cyclopiazonic acid (CPA; see protocol description below) to monitor Ca^2+ leakage from the sarcoplasmic reticulum (SR). Free intracellular Ca^2+ concentration is continuously monitored (>20 min; acquisition rate=200 Hz) with no evidence of photobleaching due to low level of excitation light intensity used and sensitivity of the Hamamatsu PMT set to high power.
After mounting the petri dish containing Fluo-4-loaded cells on the microscope stage, cell perfusion with normal physiological salt solutions (PSS) containing 2 mM Ca^2+ was initiated. A myoblast cell was then chosen under normal illumination. Fluo-4 fluorescence intensity recording was then initiated for 2 to 3 minutes to assess the level of loading and stability of the measurement. Once these conditions were met, the solution was switched to Ca^2+-free PSS for 5 min, and then switched for another 5 min to Ca^2+-free PSS containing only vehicle (Control; maximal concentration of 0.1% dimethyl sulfoxide) or vehicle plus drug to be tested (Test). […]

mdx mice [4] = experiment: In vitro force measurement of diaphragm muscle of treated mdx mice; type: in vivo, mouse; conditions: ca. 60 mg/kg in diet, four weeks of daily treatment (FIG. 8)
Protocol: (§1) mdx C57BL/10 mice (15 mice per group) (Jackson Laboratory; mdx mice stock number 001801; C57BL/10 stock number 000476) were treated with Example 20 formulated in food (347 mg of Example 20 blended into 1 kg of Purina LabDiet Rodent 5001). Based on calculated food consumption, the dose of Example 20 was estimated to be 60 mg/Kg, administered daily in diet for 4 weeks.
Mice were delivered at 4 weeks of age, and acclimatized for an additional seven days prior to initiation of the study. All animals were weighed, and grouped into different treatment groups based on body weight. Each group received an appropriate daily dosage of Example 20 or vehicle. Age and sex-matched C57BL/10 (vehicle) were used as controls. Exposure levels of Example 1 (the metabolism product of Example 20) in mouse plasma was measured in a separate 5-day pharmacokinetic study in mdx mice prior to the initiation of the 4-week study. Plasma samples were also taken at the termination of the 4-week study for pharmacokinetic assessment in which exposure leves of Example 1 were again measured (the results are set out below). The functional measurements (grip strength measurement and exhaustion assay) were performed after treatment. At the end of the trial, the extensor digitorum longus muscle (EDL) and diaphragm in vitro force measurements were taken, and dissection of the mice was performed to collect tissues. […]

mdx mice [5] = experiment: Histology (H&E): muscle regeneration and markers of inflammation in treated mdx mice; type: in vivo, mouse; conditions: 4-weeks treatment
Protocol: as §1
Mice were delivered at 4 weeks of age, and acclimatized for an additional seven days prior to initiation of the study. All animals were weighed, and grouped into different treatment groups based on body weight. Each group received an appropriate daily dosage of Example 20 or vehicle. Age and sex-matched C57BL/10 (vehicle) were used as controls. Exposure levels of Example 1 (the metabolism product of Example 20) in mouse plasma was measured in a separate 5-day pharmacokinetic study in mdx mice prior to the initiation of the 4-week study. Plasma samples were also taken at the termination of the 4-week study for pharmacokinetic assessment in which exposure leves of Example 1 were again measured (the results are set out below). The functional measurements (grip strength measurement and exhaustion assay) were performed after treatment. At the end of the trial, the extensor digitorum longus muscle (EDL) and diaphragm in vitro force measurements were taken, and dissection of the mice was performed to collect tissues. Histology evaluation (H&E) was performed on the frozen sections of the diaphragm and gastrocnemius muscles for each group.
Diaphragm and gastrocnemius muscles of untreated and drug-treated mice were isolated and included in Killik frozen section medium, frozen and cut into 8-μm thick sections with the muscle fibers oriented transversely using a cryostat. Sections were stained with Hematoxylin & Eosin to evaluate markers of inflammation, muscle degeneration and regeneration and percentage central nuclei according to Grounds (TREAT NMD SOP protocol DMD_M.1.2.007, Quantification of histopathology in Haemotoxylin and Eosin stained muscle sections).

| SMILES | Plasma Stability, Time 0 min [2] [%] | Plasma Stability, Time 60 min [2] [%] | Plasma Stability, Time 240 min [2] [%] | Integrated CPA-Induced CaT (area under the curve) (% Reduction in Peak A) [3] [%] | % Reduction in Peak CaT after return to 2 mM Ca^2+ (% Reduction in Peak E) [3] [%] | also measured |
| --- | --- | --- | --- | --- | --- | --- |
| COC(=O)C1=C(C)NC(C)=C([N+](=O)[O-])C1c1ccccc1C(F)(F)F (stereo not shown) [Bay K8644, reference compound] | – | – | – | – | – | CTD75 relative to vehicle control ([1]; reference compounds at 1 uM, under each experimental condition, 0.1% DMSO vehicle): ≥ 125 % of vehicle control |
| CC1CC(OC(=O)C(O)c2ccccc2)CC(C)(C)N1C (stereo not shown) [Eucatropine, reference compound] | 100.0 | 67.4 | 41.0 | – | – | Plasma Stability, Time 30 min [2]: 90.0% |
| [2H]C(c1ccc(C(=O)O)cc1)N1CCSc2ccc(OC)cc2C1([2H])[2H] (stereo not shown) [Example 1, 4-((5,5-Dideutero-7-methoxy-2,3-dihydrobenzo[f][1,4]thiazepin-4(5H)-yl)deuteromethyl)benzoic acid] | 100.0 | 99.8 | 102.1 | – | – | plasma stability after 2-hours of incubation in plasma ([2]; 2-hours of incubation): unchanged; Plasma Stability, Time 30 min [2]: 111.2% |
| COc1cc2c(cn1)SCCN(Cc1ccc(C(=O)O)cc1)C2 [Example 2, 4-((7-Methoxy-2,3-dihydropyrido[4,3-f][1,4]thiazepin-4(5H)-yl)methyl)benzoic acid] | – | – | – | 43.3 | 41.4 | CTD75 shortened to % of control ([1]; 10 uM, 30 uM (FIG. 5)): 79 % of control; triangulation T75-25 reduced to % of control ([1]; 10 uM, 30 uM (FIG. 5)): 71 % of control; effect on proarrhythmia and calcium transient ([1]; 10 uM, 30 uM, spontaneously beating cells in 4 mM calcium Tyrode's solution (FIG. 4)): dose-related reduction of proarrhythmia and calcium transient shortening |
| COc1ccc2c(n1)CN(Cc1ccc(C(=O)O)cc1)CCS2 [Example 9, 4-((7-Methoxy-2,3-dihydropyrido[2,3-f][1,4]thiazepin-4(5H)-yl)methyl)benzoic acid] | – | – | – | 19.4 | 40.7 | – |
| COc1cnc2c(c1)CN(Cc1ccc(C(=O)O)cc1)CCS2 [Example 13, 4-((7-Methoxy-2,3-dihydropyrido[3,2-f][1,4]thiazepin-4(5H)-yl)methyl)benzoic acid] | – | – | – | 25.9 | 80.8 | – |
| COc1ncc2c(n1)CN(Cc1ccc(C(=O)O)cc1)CCS2 [Example 17, 4-((2-Methoxy-6,7-dihydropyrimido[4,5-f][1,4]thiazepin-8(9H)-yl)methyl)benzoic acid] | – | – | – | 23.0 | 21 | – |
| [2H]C(c1ccc(C(=O)OCCCCO[N+](=O)[O-])cc1)N1CCSc2ccc(OC)cc2C1([2H])[2H] (stereo not shown) [Example 20] | 100.0 | 0.6 | 0.3 | – | – | maximal force in the diaphragm (mdx mice [4]): significant improvement; specific force in the diaphragm (mdx mice [4]): significant improvement; increase in regenerating fibers/mm^2 in the diaphragm (mdx mice [5]): > 25%; increase in regenerating fibers/mm^2 in the gastrocnemius muscle (mdx mice [5]): > 50%; reduction in inflammatory foci/mm^2 in the gastrocnemius muscle (mdx mice [5]): > 30% |
| COc1ccc2c(c1)CN(C)CCS2 [Example S107, reference compound] | – | – | – | 74.1 | 52.8 | – |
